Consider 58 compounds from US20230210116A1, “HONEYBEE REPELLENT” (EARTH CORPORATION, priority 2020, published 2023).

The test system of this assay is honeybees. Kind of assay: Test for Confirmation of Honeybee Repelling Effect 1, 2, 3 (feeding station with 40% sugar water). The note with it: for Corrected repelling rate (%) Honeybees: Test 3, 5 mL; for Corrected repelling rate R (%): honeybees. The class given is in vivo. The text has this:
The following were used as the test samples for Examples: 2% by weight per volume ethanol solutions of octane (a-1), tetradecane (a-2), heptadecane (a-3), nonadecane (a-4), 2-acetylfuran (b-1), 5-methyl-2-furaldehyde (b-2), furfural (b-3), furaneol (c-1), 2-acetylpyrrole (d-1), 1-benzylpyrrole (d-2), 1-octanol (e-1), 1-dodecanol (e-2), and 1-octadecanol (e-3), respectively; and 2% by weight per volume aqueous solutions of furfuryl alcohol (b-4), sotolon (c-2), and α-angelicalactone (c-3), respectively.
The following were used as the test samples for Comparative Examples: 2% by weight per volume ethanol solutions of eicosane (carbon number 20, p-1), heneicosane (carbon number 21, p-2), 2-methyloctane (branched alkane, p-3), tributyl o-acetylcitrate (p-4), and 1-methylpyrrole (p-5), respectively; and 2% by weight per volume aqueous solutions of 2-methyltetrahydrofuran-3-one (p-6) and acetic acid (p-7), respectively.
Ethanol alone and water alone were used as samples for correction.
The cotton pads 13 were impregnated with 40% sugar water (80 g), after which disposable wooden chopsticks 15 (80 mm in length) were placed over the cotton pads on the lid surface as “landing areas,” for use as “test insect (honeybee) feeding station 1” 10.
A nest box of test insects (honeybees) (1 colony: approx. 6,000 bees) was placed at the center of a glass hothouse (bottom face: 5 m×10 m, height (highest part): 3 m, temperature: 25° C.), and the aforementioned “test insect (honeybee) feeding station 1” was installed at a location 2 meters away from the nest box.
After confirming that at least five test insects (honeybees) were feeding at the above “test insect (honeybee) feeding station 1” installed in the hothouse, test 1 was conducted to measure the “approaching count (Mz)” and “landing count (My)” and calculate the “landing rate (Mx).”
Next, the “test insect (honeybee) feeding station 1” installed in the hothouse was replaced with each “test insect (honeybee) feeding station 2” which was let to stand still for 5 minutes, after which test 2 was conducted to measure the “approaching count (Nz)” and “landing count (Ny)” and calculate the “landing rate (Nx).”
Approaching count: Total number of times a honeybee has approached within 25 cm of the cotton wools at the feeding station during 5 minutes
Landing count: Total number of honeybees that have remained for at least 1 second on the cotton pads at the feeding station during 5 minutes
Landing rate (%): (Landing count/Approaching count)×100
The “repelling rate Q” and “corrected repelling rate R” were calculated from the above “landing rates” using the calculation formula below. For the “repelling rate of sample for correction” used to calculate the “corrected repelling rate R,” the repelling rate of each of the samples for correction above (ethanol alone or water alone being a solvent for the active ingredient) was used.
Repelling rate Q (%)={(Mx)−(Nx)}/(Mx)×100
Corrected repelling rate R (%)={Repelling rate of test sample−Repelling rate of sample for correction}/{100−Repelling rate of sample for correction}×100
The following were used as the test samples for Examples: 0.1% by weight per volume ethanol solutions of 3-methyl-2-butanol (e-4), carvacrol (x-1), isoeugenol (x-2), cinnamyl alcohol (x-3), diacetone alcohol (x-4), α-amylcinnamaldehyde (x-5), 3-methyl-2-butenal (x-6), valeraldehyde (x-7), ethyl cinnamate (x-8), methyl cinnamate (x-9), ethyl isovalerate (x-10), isoamyl formate (x-11), 5-ethyl-2-methylpyridine (x-12), 2-(3-phenylpropyl)pyridine (x-13), 2,6-dimethylpyridine (x-14), ß-ionone (x-15), 2-acetylthiazole (x-16), butylamine (x-17), and citronella oil (x-18), respectively; and a 0.1% by weight per volume aqueous solution of (3-amino-3-carboxypropyl)dimethylsulfonium chloride (x-19).

The mark [1] stands for this setting: 0.1% by weight per volume solution.
Setting [2] is: Test 2, 0.1% by weight per volume solution, 5 mL (active ingredient 5 mg).
[3] abbreviates: Test 1, 2% by weight per volume solution.
Setting [4] is: Test 1, 2% by weight per volume solution, 5 mL sprayed (active ingredient 0.1 g).
[5] abbreviates: 2.0% by weight per volume solution.

For the compound `CC(C)CO.CC(C)CO` [e-5, 2-methyl-1-propanol (isobutanol)], the “Corrected repelling rate (%) Honeybees” value under setting [1] is on record as 88.2%.

For the compound `CN1CCCC1` [y-92, 1-methylpyrrolidine], the “Corrected repelling rate (%) Honeybees” value under setting [1] worked out at 25.9%.

Take `CC(=O)c1ccc(C)cc1` [y-68, 4-methylacetophenone]: the “Corrected repelling rate (%) Honeybees” value under setting [1] stood at 84.3%.

With `CC=Cc1ccc(O)c(OC)c1` [x-2, isoeugenol], the “Corrected repelling rate R (%)” value under setting [2] worked out at 64.6%.

As for `Cn1cccc1` [p-5, 1-methylpyrrole, reference compound], under setting [3], the “repelling effect / repelled behaviors of honeybees (in words)” value (shortened to “repelling effect / repelled behaviors”) is reported as “not observed at all”. Further, the “Corrected repelling rate R (%)” value under setting [4] is reported as less than 0%.

As to `Cc1cnc(C)c(C)n1` [y-55, 2,3,5-trimethylpyrazine], the “Corrected repelling rate (%) Honeybees” value under setting [1] was determined as 80.6%.

`CC(=O)OCc1ccccc1` [y-19, benzyl acetate]: the “Corrected repelling rate (%) Honeybees” value under setting [1] is listed as 83.2%.

On to `CCCC=O` [y-15, butylaldehyde], for which the “Corrected repelling rate (%) Honeybees” value under setting [1] is 51.0%.

Consider `CCCCCCCC=O` [y-12, n-octanal], for which the “Corrected repelling rate (%) Honeybees” value under setting [1] came out at 96.3%.

As for `CCCCCCCCCCCCCCCCCCO` [e-3, 1-octadecanol], the “Corrected repelling rate R (%)” value under setting [4] turned out to be 16.2%.

For `CC(=O)CC(C)=O` [y-70, acetylacetone], the “Corrected repelling rate (%) Honeybees” value under setting [1] amounted to 21.5%.

As to `O=C(O)c1ccc(O)cc1` [y-77, 4-hydroxybenzoic acid], the “Corrected repelling rate (%) Honeybees” value under setting [1] was 80.1%.

For `C=Cc1ccc(OC)cc1` [y-90, 4-methoxystyrene], the “Corrected repelling rate (%) Honeybees” value under setting [5] was determined as 95.6%.

On to `CC(=O)O` [p-7, acetic acid, reference compound], for which the “Corrected repelling rate R (%)” value under setting [4] is on record as less than 0%.

For `CCc1nccnc1CC` [y-56, 2,3-diethylpyrazine], the “Corrected repelling rate (%) Honeybees” value under setting [1] is reported as 57.0%.

Consider `CCCCCCCCCC(=O)OCC` [y-38, ethyl decanoate], for which the “Corrected repelling rate (%) Honeybees” value under setting [1] came out at 58.7%.

As for `CCCCCCCCCCCCO` [e-2, 1-dodecanol], under setting [4], the “Corrected repelling rate R (%)” value turned out to be 84.6%.

For the compound `CCCCSCCCC` [y-94, butyl sulfide], under setting [5], the “Corrected repelling rate (%) Honeybees” value worked out at 17.2%.

Consider `C/C=C(\C)C=O` [y-13, trans-2-methyl-2-butenal], for which the “Corrected repelling rate (%) Honeybees” value under setting [1] is on record as 67.4%.

For `CCc1cccnc1` [y-62, 3-ethylpyridine], the “Corrected repelling rate (%) Honeybees” value under setting [5] is 58.3%.

Turning to `CCCCCC(C=O)=Cc1ccccc1` [x-5, α-amylcinnamaldehyde], the “Corrected repelling rate R (%)” value under setting [2] is 77.8%.

As to `CSCCCO` [y-3, methionol], under setting [5], the “Corrected repelling rate (%) Honeybees” value was found to be 84.7%.

With `CCCCCCCCCCCCCCC(=O)OCC` [y-40, ethyl pentadecanoate], the “Corrected repelling rate (%) Honeybees” value under setting [1] was determined as 77.6%.

Consider `CC(=O)c1ccc2ccccc2c1` [y-67, 2′-acetonaphtone], for which the “Corrected repelling rate (%) Honeybees” value under setting [1] is recorded as 91.0%.

In the case of `Cc1ccc(C=O)o1` [b-2, 5-methyl-2-furaldehyde], the “Corrected repelling rate R (%)” value under setting [4] is 55.3%.

For the compound `CC(=O)/C=C/C1C(C)=CCCC1(C)C` (stereo not drawn) [y-71, α-ionone], under setting [1], the “Corrected repelling rate (%) Honeybees” value was 90.0%.

For `CC(C)CCOC(=O)CC(C)C` [y-52, isoamyl isovalerate], under setting [5], the “Corrected repelling rate (%) Honeybees” value is recorded as 23.5%.

As for `Cc1cccc2nccnc12` [y-83, 5-methylquinoxaline], under setting [1], the “Corrected repelling rate (%) Honeybees” value was 78.7%.

As for `CCc1nccnc1C` [y-59, 2-ethyl-3-methylpyrazine], the “Corrected repelling rate (%) Honeybees” value under setting [1] turned out to be 72.8%.

For the compound `Sc1ccc2ccccc2c1` [y-88, 2-naphthalenethiol], under setting [1], the “Corrected repelling rate (%) Honeybees” value is 74.6%.

Turning to `CC(CC=O)CCCC(C)(C)O` (stereo not drawn) [y-9, hydroxycitronellal], under setting [5], the “Corrected repelling rate (%) Honeybees” value worked out at 92.8%.

With `CCCCCCCCCCCCCCCCCCCCC` [p-2, heneicosane, reference compound], the “repelling effect / repelled behaviors” value under setting [3] is recorded as “not observed at all”. Besides, the “Corrected repelling rate R (%)” value under setting [4] is recorded as less than 0%.

With `C/C=C(\C)C(=O)OC/C=C(\C)CCC=C(C)C` [y-31, geranyl tiglate], the “Corrected repelling rate (%) Honeybees” value under setting [1] is 70.3%.

`CCCCCCCCCCCCCCCCCCC` [a-4, nonadecane]: under setting [4], the “Corrected repelling rate R (%)” value stood at 56.7%.

As to `CCCCCCCCCCCCCCCCC` [a-3, heptadecane], under setting [3], the “repelling effect / repelled behaviors” value is reported as “excellent repelling effect”. For the same compound, under setting [4], the “Corrected repelling rate R (%)” value stood at 28.2%.

Regarding `CC(C)CCO` [e-6, 3-methyl-1-butanol], under setting [1], the “Corrected repelling rate (%) Honeybees” value was found to be 65.4%.

Consider `CC1OCCC1=O` (stereo not drawn) [p-6, 2-methyltetrahydrofuran-3-one, reference compound], for which the “repelling effect / repelled behaviors” value under setting [3] is on record as “not observed at all”. For the same compound, the “Corrected repelling rate R (%)” value under setting [4] is reported as less than 0%.

Regarding `CC(=O)OCCC(C)CCC=C(C)C` (stereo not drawn) [y-30, citronellyl acetate], under setting [1], the “Corrected repelling rate (%) Honeybees” value was found to be 91.1%.

Consider `Cc1cncc(C)n1` [y-60, 2,6-dimethylpyrazine], for which, under setting [1], the “Corrected repelling rate (%) Honeybees” value is listed as 35.4%.

Turning to `CC(=O)CC(C)(C)O` [x-4, diacetone alcohol], the “Corrected repelling rate R (%)” value under setting [2] is 20.9%.

As for `Cc1cccc2c(C)cccc12` [y-89, 1,5-dimethylnaphthalene], the “Corrected repelling rate (%) Honeybees” value under setting [1] amounted to 88.8%.

Take `CCCCCCCCCCCCCCCCCCCC` [p-1, eicosane, reference compound]: under setting [3], the “repelling effect / repelled behaviors” value was “not observed at all”. Also, the “Corrected repelling rate R (%)” value under setting [4] is less than 0%.

As to `CC(=O)OCCC(C)C` [y-53, isoamyl acetate], the “Corrected repelling rate (%) Honeybees” value under setting [5] is on record as 23.0%.

For `O=C1CCCO1` [y-64, γ-butyrolactone], the “Corrected repelling rate (%) Honeybees” value under setting [1] is on record as 27.5%.

On to `CCCCCCC(C)C` [p-3, 2-methyloctane, reference compound], for which the “repelling effect / repelled behaviors” value under setting [3] is given as “not observed at all”. The “Corrected repelling rate R (%)” value under setting [4] is given as less than 0%.

Regarding `CC(=O)c1ccc[nH]1` [d-1, 2-acetylpyrrole], the “repelling effect / repelled behaviors” value under setting [3] is given as “excellent repelling effect”. Also, the “Corrected repelling rate R (%)” value under setting [4] was determined as 37.0%.

On to `CNc1ccccc1C(=O)OC` [y-34, methyl N-methylanthranilate], for which the “Corrected repelling rate (%) Honeybees” value under setting [1] was 78.6%.

Turning to `CCCCCCCC(=O)OCC` [y-48, ethyl octanoate], under setting [5], the “Corrected repelling rate (%) Honeybees” value is recorded as 94.1%.

Turning to `CCCCCCCC(=O)OCCCC` [y-36, butyl n-octanoate], under setting [1], the “Corrected repelling rate (%) Honeybees” value was 52.0%.

As to `CC(=O)c1nccs1` [x-16, 2-acetylthiazole], under setting [2], the “Corrected repelling rate R (%)” value was 61.7%.

With `O=C(O)c1ccnc2ccccc12` [y-82, 4-quinolinecarboxylic acid], under setting [1], the “Corrected repelling rate (%) Honeybees” value turned out to be 55.5%.

Take `CC(=O)c1ccccc1` [y-69, acetophenone]: under setting [5], the “Corrected repelling rate (%) Honeybees” value is 98.9%.

Take `c1ccc(Cn2cccc2)cc1` [d-2, 1-benzylpyrrole]: under setting [3], the “repelling effect / repelled behaviors” value is listed as “excellent repelling effect”. In addition, under setting [4], the “Corrected repelling rate R (%)” value is 68.3%.

As to `Cc1cnccn1` [y-58, 2-methylpyrazine], under setting [1], the “Corrected repelling rate (%) Honeybees” value is 55.0%.

`CC(=O)OC(C)(C)C1CC=C(C)CC1` (stereo not drawn) [y-29, terpinyl acetate]: under setting [1], the “Corrected repelling rate (%) Honeybees” value is given as 81.2%.

Take `CC(C)COC(=O)Cc1ccccc1` [y-21, isobutyl phenylacetate]: the “Corrected repelling rate (%) Honeybees” value under setting [1] amounted to 80.5%.

In the case of `CCCCOC(=O)CC(CC(=O)OCCCC)(OC(C)=O)C(=O)OCCCC` [p-4, tributyl o-acetylcitrate, reference compound], the “Corrected repelling rate R (%)” value under setting [4] is reported as less than 0%.

On to `CCCCCCCCO` [e-1, 1-octanol], for which the “Corrected repelling rate R (%)” value under setting [4] is reported as 58.3%.
